Calls of active or inactive are those of the source. No cut-off for these calls is given here.
What was measured:
PC-12 [1] = assay: Inhibition of HDAC6 in rat PC12 cells assessed as induction of alpha-tubulin acetylation after 48 hrs by Western blotting analysis; type: cell-based
PC-12 [2] = assay: Induction iof GAP-43 protein expression in rat PC12 cells after 48 hrs by Western blotting analysis; type: functional, cell-based
SH-SY5Y [3] = assay: Increase of synaptic activity in human SH-SY5Y cells after 5 days by fluorescence assay; type: functional, cell-based; settings: 120 h
SH-SY5Y [4] = assay: Induction of neurite outgrowth in human SH-SY5Y cells after 5 days; type: functional, cell-based; settings: 120 h
PC-12 [5] = assay: Increase of synaptic activity in rat PC12 cells after 5 days by fluorescence assay; type: functional, cell-based; settings: PC-12, 120 h
SH-SY5Y [6] = assay: Induction of neurite outgrowth in human SH-SY5Y cells at 10 uM after 5 days; type: functional, cell-based
PC-12 [7] = assay: Induction of neurite outgrowth in rat PC12 cells after 5 days; type: functional, cell-based; settings: PC-12, 120 h
PC-12 [8] = assay: Induction of neurite outgrowth in rat PC12 cells at 10 uM after 5 days; type: functional, cell-based
Histone deacetylase 11 = target: T1, Histone deacetylase 11 (Homo sapiens, UniProt Q96DB2); assay: Inhibition of human recombinant HDAC11 expressed in baculovirus/sf9 cells using RHKKAc as substrate
T1 sequence (Q96DB2 whole entry): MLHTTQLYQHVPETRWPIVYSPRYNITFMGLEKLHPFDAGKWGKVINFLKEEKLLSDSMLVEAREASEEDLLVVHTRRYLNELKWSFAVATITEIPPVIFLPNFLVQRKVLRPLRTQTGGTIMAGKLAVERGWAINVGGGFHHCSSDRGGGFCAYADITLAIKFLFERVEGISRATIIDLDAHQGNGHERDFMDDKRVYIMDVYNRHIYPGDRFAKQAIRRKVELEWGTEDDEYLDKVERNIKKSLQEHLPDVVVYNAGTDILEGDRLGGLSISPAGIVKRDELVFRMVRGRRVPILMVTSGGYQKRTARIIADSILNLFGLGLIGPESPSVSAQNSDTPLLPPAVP

[9] = target: T2, Protein deacetylase HDAC6 (Homo sapiens, UniProt Q9UBN7); assay: Inhibition of human recombinant HDAC6 expressed in baculovirus/sf9 cells using RHKKAc as substrate
T2 sequence (Q9UBN7 whole entry): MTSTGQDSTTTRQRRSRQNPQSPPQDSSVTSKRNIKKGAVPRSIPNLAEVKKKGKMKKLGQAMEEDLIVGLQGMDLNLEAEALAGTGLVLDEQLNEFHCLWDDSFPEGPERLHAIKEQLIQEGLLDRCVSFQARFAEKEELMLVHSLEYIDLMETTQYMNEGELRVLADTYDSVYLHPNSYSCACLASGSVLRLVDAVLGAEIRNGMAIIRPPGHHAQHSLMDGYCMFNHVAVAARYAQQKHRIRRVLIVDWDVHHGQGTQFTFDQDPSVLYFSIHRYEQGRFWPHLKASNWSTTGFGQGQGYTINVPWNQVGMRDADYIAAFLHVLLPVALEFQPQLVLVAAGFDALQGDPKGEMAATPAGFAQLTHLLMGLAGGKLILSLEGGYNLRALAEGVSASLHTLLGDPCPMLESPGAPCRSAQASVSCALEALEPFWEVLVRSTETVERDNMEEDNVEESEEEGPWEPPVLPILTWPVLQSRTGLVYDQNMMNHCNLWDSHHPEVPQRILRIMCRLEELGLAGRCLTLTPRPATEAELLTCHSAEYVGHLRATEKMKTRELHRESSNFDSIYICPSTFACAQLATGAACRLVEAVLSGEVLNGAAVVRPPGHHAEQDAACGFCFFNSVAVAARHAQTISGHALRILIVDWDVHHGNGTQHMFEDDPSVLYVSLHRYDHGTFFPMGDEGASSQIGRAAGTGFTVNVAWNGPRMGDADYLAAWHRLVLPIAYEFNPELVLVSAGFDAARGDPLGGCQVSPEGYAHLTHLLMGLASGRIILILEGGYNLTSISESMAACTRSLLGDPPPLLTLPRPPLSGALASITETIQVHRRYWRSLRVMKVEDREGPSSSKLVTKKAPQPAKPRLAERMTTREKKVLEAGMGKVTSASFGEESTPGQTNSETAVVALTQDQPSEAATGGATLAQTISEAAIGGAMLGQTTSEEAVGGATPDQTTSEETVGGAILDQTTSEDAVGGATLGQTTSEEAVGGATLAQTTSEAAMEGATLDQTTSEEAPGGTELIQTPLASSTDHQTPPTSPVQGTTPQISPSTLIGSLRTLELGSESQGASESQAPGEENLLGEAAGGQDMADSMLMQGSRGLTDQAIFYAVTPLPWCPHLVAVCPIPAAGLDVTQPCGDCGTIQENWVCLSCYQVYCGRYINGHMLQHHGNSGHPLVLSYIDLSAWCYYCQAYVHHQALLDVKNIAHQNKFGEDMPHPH

Histone deacetylase 8 = target: T3, Histone deacetylase 8 (Homo sapiens, UniProt Q9BY41); assay: Inhibition of human recombinant HDAC8 expressed in baculovirus/sf9 cells using RHKAcKAc as substrate
T3 sequence (Q9BY41 whole entry): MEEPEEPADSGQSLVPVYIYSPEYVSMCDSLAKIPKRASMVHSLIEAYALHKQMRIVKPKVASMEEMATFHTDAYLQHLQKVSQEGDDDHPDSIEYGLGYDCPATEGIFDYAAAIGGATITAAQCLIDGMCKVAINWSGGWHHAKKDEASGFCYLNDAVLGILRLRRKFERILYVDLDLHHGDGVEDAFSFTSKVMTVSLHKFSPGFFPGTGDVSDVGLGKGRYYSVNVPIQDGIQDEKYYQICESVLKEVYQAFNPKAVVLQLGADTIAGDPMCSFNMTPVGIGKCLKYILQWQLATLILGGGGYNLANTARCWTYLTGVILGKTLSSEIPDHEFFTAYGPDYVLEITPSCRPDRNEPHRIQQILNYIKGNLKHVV

Histone deacetylase 2 [10] = target: T4, Histone deacetylase 2 (Homo sapiens, UniProt Q92769); assay: Inhibition of human recombinant HDAC2 expressed in baculovirus/sf9 cells using RHKKAc as substrate
T4 sequence (Q92769 whole entry): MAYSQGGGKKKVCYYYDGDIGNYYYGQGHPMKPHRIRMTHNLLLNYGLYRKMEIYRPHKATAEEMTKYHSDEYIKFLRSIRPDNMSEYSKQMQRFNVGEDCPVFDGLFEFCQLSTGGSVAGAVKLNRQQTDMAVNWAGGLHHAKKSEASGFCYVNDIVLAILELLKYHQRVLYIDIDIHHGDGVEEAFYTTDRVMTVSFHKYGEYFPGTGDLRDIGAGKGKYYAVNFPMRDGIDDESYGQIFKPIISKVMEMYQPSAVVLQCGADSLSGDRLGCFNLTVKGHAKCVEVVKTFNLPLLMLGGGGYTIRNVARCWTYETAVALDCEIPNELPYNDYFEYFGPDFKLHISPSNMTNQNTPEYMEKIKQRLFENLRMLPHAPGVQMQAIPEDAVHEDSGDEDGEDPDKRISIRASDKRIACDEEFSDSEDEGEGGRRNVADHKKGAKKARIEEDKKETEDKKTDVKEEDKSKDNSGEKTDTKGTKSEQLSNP

Cytochrome P450 2C19 = Cytochrome P450 2C19 (Homo sapiens, UniProt P33261); assay: Inhibition of CYP2C19 (unknown origin) using 3-cyano-7-ethoxycoumarin as substrate; type: ADME
Sequence of Cytochrome P450 2C19 (P33261 whole entry): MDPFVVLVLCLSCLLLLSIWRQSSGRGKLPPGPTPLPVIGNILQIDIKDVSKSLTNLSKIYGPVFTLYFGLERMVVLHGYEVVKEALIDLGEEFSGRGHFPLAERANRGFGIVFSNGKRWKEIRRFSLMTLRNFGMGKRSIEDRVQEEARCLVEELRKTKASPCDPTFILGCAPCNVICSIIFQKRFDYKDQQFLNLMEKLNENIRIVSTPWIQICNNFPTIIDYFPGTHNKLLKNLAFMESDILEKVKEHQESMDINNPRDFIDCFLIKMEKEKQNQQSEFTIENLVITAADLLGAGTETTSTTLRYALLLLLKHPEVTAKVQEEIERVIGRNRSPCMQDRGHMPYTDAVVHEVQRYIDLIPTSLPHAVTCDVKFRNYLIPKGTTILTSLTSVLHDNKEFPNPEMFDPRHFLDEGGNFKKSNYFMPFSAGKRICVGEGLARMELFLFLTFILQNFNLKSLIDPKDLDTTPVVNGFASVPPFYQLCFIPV

Vero = assay: Cytotoxicity against african green monkey Vero cells at 25 uM; type: cell-based; settings: chlorocebus sabaeus
[11] = Cytotoxicity against human SH-SY5Y cells at 25 uM; type: cell-based
PC-12 [12] = assay: Cytotoxicity against rat PC12 cells at 25 uM; type: cell-based; settings: pc-12, 25 µM
Cytochrome P450 1A2 = Cytochrome P450 1A2 (Homo sapiens, UniProt P05177); assay: Inhibition of CYP1A2 (unknown origin) using 3-cyano-7-ethoxycoumarin as substrate; type: ADME
Sequence of Cytochrome P450 1A2 (P05177 whole entry): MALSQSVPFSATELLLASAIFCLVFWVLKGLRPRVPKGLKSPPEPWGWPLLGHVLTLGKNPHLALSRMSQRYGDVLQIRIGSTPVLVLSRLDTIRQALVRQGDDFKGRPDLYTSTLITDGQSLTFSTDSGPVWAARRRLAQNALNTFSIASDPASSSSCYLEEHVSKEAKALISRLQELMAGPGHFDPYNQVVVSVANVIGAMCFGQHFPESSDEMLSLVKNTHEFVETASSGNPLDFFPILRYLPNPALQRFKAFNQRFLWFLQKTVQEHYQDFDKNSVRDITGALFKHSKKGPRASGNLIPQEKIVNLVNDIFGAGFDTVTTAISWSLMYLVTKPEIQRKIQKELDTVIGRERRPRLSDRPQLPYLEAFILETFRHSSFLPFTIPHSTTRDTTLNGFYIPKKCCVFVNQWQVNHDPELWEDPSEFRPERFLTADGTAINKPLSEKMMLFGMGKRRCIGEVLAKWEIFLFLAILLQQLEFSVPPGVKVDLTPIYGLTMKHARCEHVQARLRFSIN

Cytochrome P450 2D6 = Cytochrome P450 2D6 (Homo sapiens, UniProt P10635); assay: Inhibition of CYP2D6 (unknown origin) using 3-cyano-7-ethoxycoumarin as substrate; type: ADME
Sequence of Cytochrome P450 2D6 (P10635 whole entry): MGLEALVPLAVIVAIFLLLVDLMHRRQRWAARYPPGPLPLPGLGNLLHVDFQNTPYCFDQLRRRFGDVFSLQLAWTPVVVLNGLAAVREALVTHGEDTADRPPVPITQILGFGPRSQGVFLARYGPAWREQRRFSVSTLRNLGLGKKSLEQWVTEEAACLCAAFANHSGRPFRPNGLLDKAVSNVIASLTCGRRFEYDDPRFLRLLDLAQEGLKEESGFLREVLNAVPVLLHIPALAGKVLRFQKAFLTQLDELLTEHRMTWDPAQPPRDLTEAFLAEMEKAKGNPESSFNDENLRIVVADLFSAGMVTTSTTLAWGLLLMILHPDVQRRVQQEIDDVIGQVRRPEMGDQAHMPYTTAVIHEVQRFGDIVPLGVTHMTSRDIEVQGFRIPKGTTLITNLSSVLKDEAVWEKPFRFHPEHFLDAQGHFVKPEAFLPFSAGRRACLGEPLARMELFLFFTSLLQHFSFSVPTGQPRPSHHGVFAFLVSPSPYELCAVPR

Cytochrome P450 2C9 = Cytochrome P450 2C9 (Homo sapiens, UniProt P11712); assay: Inhibition of CYP2C9 (unknown origin) using Vivid OOMR as substrate; type: ADME
Sequence of Cytochrome P450 2C9 (P11712 whole entry): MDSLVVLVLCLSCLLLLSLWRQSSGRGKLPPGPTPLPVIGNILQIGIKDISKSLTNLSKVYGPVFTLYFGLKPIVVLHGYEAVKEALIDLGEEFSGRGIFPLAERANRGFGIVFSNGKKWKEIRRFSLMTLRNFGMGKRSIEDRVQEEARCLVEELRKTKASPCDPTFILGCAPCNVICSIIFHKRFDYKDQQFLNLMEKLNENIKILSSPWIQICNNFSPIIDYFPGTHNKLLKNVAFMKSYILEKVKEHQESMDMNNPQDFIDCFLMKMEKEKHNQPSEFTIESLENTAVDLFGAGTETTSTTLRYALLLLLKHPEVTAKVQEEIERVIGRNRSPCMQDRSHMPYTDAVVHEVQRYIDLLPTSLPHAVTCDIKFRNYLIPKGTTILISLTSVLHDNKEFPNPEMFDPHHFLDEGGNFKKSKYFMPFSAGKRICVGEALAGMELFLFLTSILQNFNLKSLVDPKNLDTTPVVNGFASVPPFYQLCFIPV

Cytochrome P450 3A4 = Cytochrome P450 3A4 (Homo sapiens, UniProt P08684); assay: Inhibition of CYP3A4 (unknown origin) using Vivid BOMR as substrate; type: ADME
Sequence of Cytochrome P450 3A4 (P08684 whole entry): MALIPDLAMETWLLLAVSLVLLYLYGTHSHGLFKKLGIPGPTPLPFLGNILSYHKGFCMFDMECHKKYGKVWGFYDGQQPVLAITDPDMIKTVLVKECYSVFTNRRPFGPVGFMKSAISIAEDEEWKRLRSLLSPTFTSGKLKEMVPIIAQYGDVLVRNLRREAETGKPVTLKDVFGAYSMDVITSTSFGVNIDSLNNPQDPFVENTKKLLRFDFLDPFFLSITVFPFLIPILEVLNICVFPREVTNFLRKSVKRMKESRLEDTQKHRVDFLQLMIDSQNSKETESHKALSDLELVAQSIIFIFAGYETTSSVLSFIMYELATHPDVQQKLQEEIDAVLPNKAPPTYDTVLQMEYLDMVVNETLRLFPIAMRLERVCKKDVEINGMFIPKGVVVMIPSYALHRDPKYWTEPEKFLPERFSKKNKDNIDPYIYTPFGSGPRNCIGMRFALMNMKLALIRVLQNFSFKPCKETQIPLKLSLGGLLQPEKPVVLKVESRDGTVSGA

[13] = target: Poly [ADP-ribose] polymerase 1 (Homo sapiens) (UniProt P09874); assay: Inhibition of PARP1 (unknown origin) up to 25 uM
Sequence of Poly [ADP-ribose] polymerase 1 (Homo sapiens) (P09874 whole entry): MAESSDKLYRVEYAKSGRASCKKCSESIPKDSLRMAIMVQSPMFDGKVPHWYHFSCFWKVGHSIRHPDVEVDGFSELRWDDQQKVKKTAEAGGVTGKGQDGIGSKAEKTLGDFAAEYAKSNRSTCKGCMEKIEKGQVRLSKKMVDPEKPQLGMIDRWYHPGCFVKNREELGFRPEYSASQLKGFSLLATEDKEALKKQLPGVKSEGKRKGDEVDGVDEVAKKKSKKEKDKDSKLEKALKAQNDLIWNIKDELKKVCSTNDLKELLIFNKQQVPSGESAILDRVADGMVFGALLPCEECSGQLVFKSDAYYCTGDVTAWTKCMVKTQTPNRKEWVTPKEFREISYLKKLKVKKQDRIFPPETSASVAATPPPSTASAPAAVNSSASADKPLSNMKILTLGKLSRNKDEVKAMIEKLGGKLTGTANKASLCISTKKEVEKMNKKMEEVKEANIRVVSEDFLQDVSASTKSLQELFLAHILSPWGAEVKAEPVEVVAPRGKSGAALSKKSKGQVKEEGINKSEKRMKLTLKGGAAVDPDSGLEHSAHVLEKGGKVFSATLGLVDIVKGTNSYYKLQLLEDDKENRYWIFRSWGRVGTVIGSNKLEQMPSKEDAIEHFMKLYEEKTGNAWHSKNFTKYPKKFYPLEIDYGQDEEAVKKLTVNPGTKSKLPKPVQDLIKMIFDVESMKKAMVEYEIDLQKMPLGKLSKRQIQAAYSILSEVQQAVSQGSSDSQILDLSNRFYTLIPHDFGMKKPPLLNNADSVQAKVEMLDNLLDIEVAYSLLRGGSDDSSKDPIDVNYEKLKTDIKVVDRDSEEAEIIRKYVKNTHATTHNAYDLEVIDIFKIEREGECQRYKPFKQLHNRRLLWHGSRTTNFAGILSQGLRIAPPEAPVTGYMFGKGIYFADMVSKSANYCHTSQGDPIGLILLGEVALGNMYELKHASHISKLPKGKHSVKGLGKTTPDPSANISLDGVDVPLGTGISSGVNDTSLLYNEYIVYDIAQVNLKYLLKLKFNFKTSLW

[14] = target: Amyloid-beta precursor protein (Homo sapiens, UniProt P05067); assay: Inhibition of amyloid beta aggregation (unknown origin) after 4 hrs by thioflavin S assay in absence of Zn2+
PC-12 [15] = assay: Inhibition of HDAC6 in rat PC12 cells assessed as acetylation of histone H3 at 10 uM after 48 hrs by Western blotting analysis; type: cell-based
PC-12 [16] = assay: Inhibition of HDAC6 in rat PC12 cells assessed as induction of alpha-tubulin acetylation at 10 uM after 48 hrs by Western blotting analysis; type: cell-based
PC-12 [17] = assay: Induction iof GAP-43 protein expression in rat PC12 cells at 0.1 uM after 48 hrs by Western blotting analysis; type: functional, cell-based
Histone deacetylase 1 [18] = target: T5, Histone deacetylase 1 (Homo sapiens, UniProt Q13547); assay: Inhibition of human recombinant HDAC1 expressed in baculovirus/sf9 cells using RHKKAc as substrate
T5 sequence (Q13547 whole entry): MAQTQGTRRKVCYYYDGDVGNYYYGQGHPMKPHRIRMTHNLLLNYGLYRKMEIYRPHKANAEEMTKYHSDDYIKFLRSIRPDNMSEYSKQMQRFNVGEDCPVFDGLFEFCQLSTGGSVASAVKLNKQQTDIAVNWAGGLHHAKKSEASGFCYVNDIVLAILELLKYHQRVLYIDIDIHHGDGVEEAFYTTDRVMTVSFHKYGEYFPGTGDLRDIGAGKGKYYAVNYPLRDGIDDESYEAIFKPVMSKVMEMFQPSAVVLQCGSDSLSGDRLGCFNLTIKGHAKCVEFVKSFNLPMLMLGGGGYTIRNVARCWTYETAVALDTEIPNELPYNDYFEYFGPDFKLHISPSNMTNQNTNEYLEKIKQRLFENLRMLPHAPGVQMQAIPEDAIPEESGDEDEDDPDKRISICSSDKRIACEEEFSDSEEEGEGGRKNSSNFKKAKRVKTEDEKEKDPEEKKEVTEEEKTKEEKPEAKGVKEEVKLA

Mus musculus [19] = assay: Antialzheimer activity in wild type learning-impaired Balb/c mouse model with hippocampal lesions at 10 mg/kg, ip administered for 30 days by rotarod test relative to vehicle-treated control; settings: Hippocampus, TDE = time-dependent effect
Mus musculus [20] = assay: Antialzheimer activity in wild type learning-impaired Balb/c mouse model with hippocampal lesions assessed as increase in acetylated alpha-tubulin level in hippocampus region at 10 mg/kg, ip administered for 30 days by rotarod test
[21] = target: Histone deacetylase 11 (Homo sapiens) (UniProt Q96DB2); assay: Inhibition of human recombinant HDAC11 expressed in baculovirus/sf9 cells using RHKKAc as substrate at 1 uM
[22] = target: Polyamine deacetylase HDAC10 (Homo sapiens) (UniProt Q969S8); assay: Inhibition of human recombinant HDAC10 expressed in baculovirus/sf9 cells using RHKKAc as substrate at 1 uM
[23] = target: Protein deacetylase HDAC6 (Homo sapiens) (UniProt Q9UBN7); assay: Inhibition of human recombinant HDAC6 expressed in baculovirus/sf9 cells using RHKKAc as substrate at 1 uM
Histone deacetylase 2 [24] = target: T4, Histone deacetylase 2; assay: Inhibition of human recombinant HDAC2 expressed in baculovirus/sf9 cells using RHKKAc as substrate at 1 uM
[25] = target: Histone deacetylase 8 (Homo sapiens) (UniProt Q9BY41); assay: Inhibition of human recombinant HDAC8 expressed in baculovirus/sf9 cells using RHKAcKAc as substrate at 1 uM
Histone deacetylase 1 [26] = target: T5, Histone deacetylase 1; assay: Inhibition of human recombinant HDAC1 expressed in baculovirus/sf9 cells using RHKKAc as substrate at 1 uM

SMILES | Activity (PC-12 [2]) | EC50 (SH-SY5Y [3]) | EC50 (SH-SY5Y [4]) | EC50 (PC-12 [5]) | Activity (SH-SY5Y [6]) | EC50 (PC-12 [7]) | Activity (PC-12 [8]) | IC50 (Histone deacetylase 11) | IC50 [9] | IC50 (Histone deacetylase 8) | IC50 (Histone deacetylase 2 [10]) | IC50 (Cytochrome P450 2C19) | Activity (Vero) | Activity [11] | Activity (PC-12 [12]) | IC50 (Cytochrome P450 1A2) | IC50 (Cytochrome P450 2D6) | IC50 (Cytochrome P450 2C9) | IC50 (Cytochrome P450 3A4) | inhibition [13] | also measured
CCc1nc2c(Cc3ccc(C(=O)NO)cc3)cccc2c(=O)n1CCc1ccccc1 | Dose-dependent effect | 8.3 µM | 8.1 µM | 6.7 µM | Active | 6.2 µM | Active | 37.1 µM | 0.079 µM | 0.282 µM | > 10 µM | 3.3 µM | Non-toxic | Non-toxic | Non-toxic | > 10 µM | > 10 µM | 2.1 µM | 0.1 µM | inactive | inhibition (PC-12 [1]): Dose-dependent effect
Cc1nc2cc(/C=C/C(=O)NO)ccc2c(=O)n1CCc1ccccc1 | Dose-dependent effect | 6.8 µM | 9.2 µM | 6.5 µM | Active | 7.3 µM | Active | 4.08 µM | 0.029 µM | 1.75 µM | 6.45 µM | > 10 µM | Non-toxic | Non-toxic | Non-toxic | > 10 µM | > 10 µM | 9.1 µM | 6.5 µM | inactive | IC50 [14]: > 50 µM; inhibition (PC-12 [15]): Active; inhibition (PC-12 [16]): Active; Activity (PC-12 [17]): Active; IC50 (Histone deacetylase 1 [18]): 1.88 µM; Activity (Mus musculus [19]): tde; Activity (Mus musculus [20]): Active
CCc1nc2c(-c3ccc(C(=O)NO)cc3)cccc2c(=O)n1CCc1ccccc1 | – | – | – | – | – | – | – | – | – | – | – | – | – | – | – | – | – | – | – | – | inhibition [21]: inactive; inhibition [22]: inactive; inhibition [23]: 50%; inhibition (Histone deacetylase 2 [24]): inactive; inhibition [25]: 50%; inhibition (Histone deacetylase 1 [26]): inactive
